Earlier results as cited in US11446297B2, “Methods for treating hemolytic diseases and sickle cell disease” (Purdue Research, priority 2015, dated 2022).

Molecular target: Syk (Homo sapiens, UniProt P43405)
Conditions: first IC column; kinase assay; Inactive@ 80 μM (r14)

For COc1ccc2c(c1)c(/C=C1\C(=O)Nc3ccc(S(=O)(=O)N(C)C)cc31)cn2C [Compd 6], the “IC@ (result in words)” value is listed as “Inactive@”.
